In US9884063B2, “Amido-substituted azole compounds” (Bayer Pharma Aktiengesellschaft, priority 2014, dated 2018):

Legend:
TNKS1 = molecular target: T1, TNKS1 (Homo sapiens, UniProt O95271); assay: Modified TNKS1 Assay 3 (BPS kit #80573, biotin-NAD+, 96 well); assay type: biochemical; details: human TNKS1, BPS kit #80573, 96 well
T1 sequence (O95271 1-1327): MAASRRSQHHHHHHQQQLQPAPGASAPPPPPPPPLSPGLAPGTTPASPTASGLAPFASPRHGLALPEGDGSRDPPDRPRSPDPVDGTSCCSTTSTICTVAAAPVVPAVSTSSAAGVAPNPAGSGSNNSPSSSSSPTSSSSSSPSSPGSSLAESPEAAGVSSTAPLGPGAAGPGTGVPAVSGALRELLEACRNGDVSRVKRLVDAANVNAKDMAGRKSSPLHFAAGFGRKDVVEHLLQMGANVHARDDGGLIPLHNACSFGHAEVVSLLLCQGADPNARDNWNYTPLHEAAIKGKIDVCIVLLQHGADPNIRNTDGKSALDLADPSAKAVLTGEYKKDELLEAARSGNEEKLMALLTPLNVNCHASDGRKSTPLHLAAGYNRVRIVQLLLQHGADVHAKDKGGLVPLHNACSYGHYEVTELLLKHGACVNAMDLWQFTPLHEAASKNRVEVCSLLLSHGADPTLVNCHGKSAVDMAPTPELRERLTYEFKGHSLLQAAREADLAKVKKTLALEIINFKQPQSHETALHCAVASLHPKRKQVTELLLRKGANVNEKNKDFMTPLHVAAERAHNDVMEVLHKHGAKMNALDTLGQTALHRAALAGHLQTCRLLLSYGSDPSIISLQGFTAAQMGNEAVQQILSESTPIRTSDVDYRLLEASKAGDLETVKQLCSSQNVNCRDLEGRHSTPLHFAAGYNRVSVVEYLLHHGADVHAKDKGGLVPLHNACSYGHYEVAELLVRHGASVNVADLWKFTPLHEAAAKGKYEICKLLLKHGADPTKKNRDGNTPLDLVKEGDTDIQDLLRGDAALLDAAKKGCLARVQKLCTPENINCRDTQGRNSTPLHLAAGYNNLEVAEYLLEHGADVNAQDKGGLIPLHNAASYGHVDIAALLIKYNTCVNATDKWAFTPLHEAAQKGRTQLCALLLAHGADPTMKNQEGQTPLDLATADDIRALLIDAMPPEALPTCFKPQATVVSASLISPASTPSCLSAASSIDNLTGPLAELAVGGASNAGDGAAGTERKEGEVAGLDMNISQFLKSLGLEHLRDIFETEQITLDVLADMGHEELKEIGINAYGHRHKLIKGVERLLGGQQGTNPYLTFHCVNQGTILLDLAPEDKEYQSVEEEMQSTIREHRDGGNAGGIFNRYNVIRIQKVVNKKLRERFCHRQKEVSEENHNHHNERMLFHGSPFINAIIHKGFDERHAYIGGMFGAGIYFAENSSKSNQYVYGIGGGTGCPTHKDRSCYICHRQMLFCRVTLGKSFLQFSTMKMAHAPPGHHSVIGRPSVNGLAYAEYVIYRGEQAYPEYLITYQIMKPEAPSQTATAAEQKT
In short: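 Chemiluminescent assay of TNKS1-catalysed ribosylation of a protein substrate with biotin-labelled NAD+, detected via streptavidin-HRP; run per kit protocol. Inhibition lowers the signal, and IC50 is the compound concentration halving the normalised readout.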

[1] = tested on: HEK293 FOP control reporter cell line; assay: HEK293 FOP Assay (FOP control vector luciferase reporter); assay type: cell-based; details: Homo sapiens; HEK293 FOP control reporter cell line, 16 hours incubation, compound dilution series 50 μM to 15 nM
In short: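 Stable HEK293 line carrying the FOP vector (randomized, non-functional TCF sites; Geneticin-selected) was run in parallel with the TOP line. Cells were plated 24 h ahead at 10000/well and given recombinant human Wnt-3a at 2500–5 ng/ml. Compounds were tested at 50 μM–15 nM (3.16-fold steps) in CAFTY buffer, pH 7.4, with 2 mM Ca2+ and 0.01% BSA.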

CCN1CCC[C@H]1CNC(=O)c1nc[nH]c1C(=O)Nc1ccc(NC(=O)c2ccc(F)cc2Cl)cc1 [Example 404, N^5-{4-[(2-chloro-4-fluorobenzoyl)amino]phenyl}-N^4-{[(2S)-1-ethylpyrrolidin-2-yl]methyl}-1H-imidazole-4,5-dicarboxamide]
IC50 (TNKS1): 0.001 µM | IC50 [1]: 29 µM
